Among the data in ChEMBL document CHEMBL1152560, “Substituted 2-arylbenzothiazoles as kinase inhibitors: hit-to-lead optimization” (Bioorg Med Chem, 2009) are residual activity values, retold here.

Assay [1] addresses Serine/threonine-protein kinase Chk2 (Homo sapiens) (UniProt O96017). The assay is described as follows: Residual activity of CHK2 at 10 uM by microplate scintillation counting.
In assay [2] the target is Casein kinase I isoform delta (Homo sapiens) (UniProt P48730). The assay is described as follows: Residual activity of CK1delta at 0.1 uM by microplate scintillation counting.
Assay [3] has as its target Cyclin-dependent kinase 5/CDK5 activator 1 (Homo sapiens) (UniProt Q00535+Q15078). The assay is described as follows: Residual activity of CDK5/p35NCK at 0.1 uM by microplate scintillation counting. In kind it is protein-complex assay.
Assay [4] has as its target T1, Inhibitor of nuclear factor kappa-B kinase subunit beta (Homo sapiens) (UniProt O14920).
T1 sequence (whole entry): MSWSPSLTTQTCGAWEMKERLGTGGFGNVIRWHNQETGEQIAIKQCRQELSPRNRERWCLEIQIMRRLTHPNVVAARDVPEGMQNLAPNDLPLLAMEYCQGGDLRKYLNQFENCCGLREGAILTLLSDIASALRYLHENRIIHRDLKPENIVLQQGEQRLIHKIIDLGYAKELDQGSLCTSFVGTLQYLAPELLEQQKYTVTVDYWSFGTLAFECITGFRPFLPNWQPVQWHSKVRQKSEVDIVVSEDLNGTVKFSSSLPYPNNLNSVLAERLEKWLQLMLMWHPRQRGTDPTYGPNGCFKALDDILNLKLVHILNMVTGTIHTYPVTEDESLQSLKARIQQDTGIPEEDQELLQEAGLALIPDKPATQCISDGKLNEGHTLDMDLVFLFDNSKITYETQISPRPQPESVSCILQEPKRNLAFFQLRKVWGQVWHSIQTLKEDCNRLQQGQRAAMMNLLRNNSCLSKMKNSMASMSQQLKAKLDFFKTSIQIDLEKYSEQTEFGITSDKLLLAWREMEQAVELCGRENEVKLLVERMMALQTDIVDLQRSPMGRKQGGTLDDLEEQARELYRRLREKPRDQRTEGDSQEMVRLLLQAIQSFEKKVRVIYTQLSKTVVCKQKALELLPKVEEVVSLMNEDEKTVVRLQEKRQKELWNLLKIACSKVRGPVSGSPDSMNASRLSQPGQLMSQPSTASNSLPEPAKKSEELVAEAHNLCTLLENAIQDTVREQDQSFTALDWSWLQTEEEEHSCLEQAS
Briefly: Residual activity of IKK-beta at 0.1 uM by microplate scintillation counting.

Assay [5] deals with Focal adhesion kinase 1 (Homo sapiens) (UniProt Q05397). Briefly: Residual activity of FAK at 1 uM by microplate scintillation counting.
In assay [6] the target is Rho-associated protein kinase 2 (Homo sapiens) (UniProt O75116). The assay is described as follows: Residual activity of ROCK2 at 1 uM by microplate scintillation counting.
Sequence of Rho-associated protein kinase 2 (Homo sapiens) (O75116 whole entry, looked up): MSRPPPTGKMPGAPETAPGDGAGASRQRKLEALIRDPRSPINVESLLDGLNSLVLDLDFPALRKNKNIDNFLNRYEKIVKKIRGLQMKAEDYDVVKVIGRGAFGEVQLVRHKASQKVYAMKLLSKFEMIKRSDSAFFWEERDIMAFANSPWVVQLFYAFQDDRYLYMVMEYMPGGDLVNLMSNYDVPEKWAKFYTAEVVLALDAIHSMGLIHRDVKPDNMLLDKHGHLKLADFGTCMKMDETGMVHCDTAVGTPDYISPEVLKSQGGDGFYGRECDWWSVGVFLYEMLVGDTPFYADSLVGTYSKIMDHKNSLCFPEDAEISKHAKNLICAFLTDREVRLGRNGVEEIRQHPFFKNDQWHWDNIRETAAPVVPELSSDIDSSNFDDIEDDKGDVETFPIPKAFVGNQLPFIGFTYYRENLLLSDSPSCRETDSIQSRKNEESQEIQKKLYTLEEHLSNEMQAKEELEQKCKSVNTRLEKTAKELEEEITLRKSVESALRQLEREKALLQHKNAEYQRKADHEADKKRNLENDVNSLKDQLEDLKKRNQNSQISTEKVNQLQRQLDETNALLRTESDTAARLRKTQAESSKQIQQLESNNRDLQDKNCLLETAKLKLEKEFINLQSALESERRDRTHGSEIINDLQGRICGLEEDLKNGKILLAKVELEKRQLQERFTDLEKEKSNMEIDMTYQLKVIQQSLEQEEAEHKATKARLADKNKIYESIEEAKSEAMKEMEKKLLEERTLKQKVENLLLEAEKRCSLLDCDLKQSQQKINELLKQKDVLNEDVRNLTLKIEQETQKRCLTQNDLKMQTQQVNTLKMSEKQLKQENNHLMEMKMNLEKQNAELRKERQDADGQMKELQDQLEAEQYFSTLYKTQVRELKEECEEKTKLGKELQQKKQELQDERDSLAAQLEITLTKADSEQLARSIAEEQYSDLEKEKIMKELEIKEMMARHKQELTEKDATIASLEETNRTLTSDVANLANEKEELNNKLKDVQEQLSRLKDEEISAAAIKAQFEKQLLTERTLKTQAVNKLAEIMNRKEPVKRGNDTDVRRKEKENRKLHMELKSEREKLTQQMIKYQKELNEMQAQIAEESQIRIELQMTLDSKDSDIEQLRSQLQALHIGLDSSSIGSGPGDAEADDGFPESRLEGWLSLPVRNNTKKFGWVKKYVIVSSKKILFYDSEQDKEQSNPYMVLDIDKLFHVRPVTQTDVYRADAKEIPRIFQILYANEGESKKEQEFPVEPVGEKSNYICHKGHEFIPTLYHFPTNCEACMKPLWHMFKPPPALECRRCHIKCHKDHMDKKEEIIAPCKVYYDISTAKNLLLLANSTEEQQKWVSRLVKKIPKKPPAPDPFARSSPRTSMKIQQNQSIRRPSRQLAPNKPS
Assay [7] concerns the target Protein-tyrosine kinase 2-beta (Homo sapiens) (UniProt Q14289). The assay is described as follows: Residual activity of PYK2 at 0.1 uM by microplate scintillation counting.
Assay [8] deals with T2, Tyrosine-protein kinase ITK/TSK (Homo sapiens) (UniProt Q08881).
T2 sequence (whole entry): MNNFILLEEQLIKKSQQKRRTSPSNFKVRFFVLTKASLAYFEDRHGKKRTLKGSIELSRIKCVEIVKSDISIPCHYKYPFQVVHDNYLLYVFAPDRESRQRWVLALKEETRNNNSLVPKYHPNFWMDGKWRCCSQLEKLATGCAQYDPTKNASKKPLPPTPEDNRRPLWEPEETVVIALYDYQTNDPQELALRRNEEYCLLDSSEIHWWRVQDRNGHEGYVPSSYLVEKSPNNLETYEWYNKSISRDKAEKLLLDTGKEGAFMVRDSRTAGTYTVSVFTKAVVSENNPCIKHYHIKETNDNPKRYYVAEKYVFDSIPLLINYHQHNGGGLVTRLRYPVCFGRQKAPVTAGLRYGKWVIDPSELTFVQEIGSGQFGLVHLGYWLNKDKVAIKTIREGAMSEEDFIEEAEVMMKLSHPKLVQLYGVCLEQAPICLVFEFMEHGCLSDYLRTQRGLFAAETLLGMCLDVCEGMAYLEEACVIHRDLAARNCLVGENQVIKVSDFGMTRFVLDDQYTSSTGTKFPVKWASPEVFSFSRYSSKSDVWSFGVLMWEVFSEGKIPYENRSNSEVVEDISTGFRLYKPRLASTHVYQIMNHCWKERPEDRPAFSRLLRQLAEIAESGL
The assay is described as follows: Residual activity of ITK at 10 uM by microplate scintillation counting.

Assay [9] has as its target T3, Inhibitor of nuclear factor kappa-B kinase subunit alpha (Homo sapiens) (UniProt O15111).
T3 sequence (whole entry): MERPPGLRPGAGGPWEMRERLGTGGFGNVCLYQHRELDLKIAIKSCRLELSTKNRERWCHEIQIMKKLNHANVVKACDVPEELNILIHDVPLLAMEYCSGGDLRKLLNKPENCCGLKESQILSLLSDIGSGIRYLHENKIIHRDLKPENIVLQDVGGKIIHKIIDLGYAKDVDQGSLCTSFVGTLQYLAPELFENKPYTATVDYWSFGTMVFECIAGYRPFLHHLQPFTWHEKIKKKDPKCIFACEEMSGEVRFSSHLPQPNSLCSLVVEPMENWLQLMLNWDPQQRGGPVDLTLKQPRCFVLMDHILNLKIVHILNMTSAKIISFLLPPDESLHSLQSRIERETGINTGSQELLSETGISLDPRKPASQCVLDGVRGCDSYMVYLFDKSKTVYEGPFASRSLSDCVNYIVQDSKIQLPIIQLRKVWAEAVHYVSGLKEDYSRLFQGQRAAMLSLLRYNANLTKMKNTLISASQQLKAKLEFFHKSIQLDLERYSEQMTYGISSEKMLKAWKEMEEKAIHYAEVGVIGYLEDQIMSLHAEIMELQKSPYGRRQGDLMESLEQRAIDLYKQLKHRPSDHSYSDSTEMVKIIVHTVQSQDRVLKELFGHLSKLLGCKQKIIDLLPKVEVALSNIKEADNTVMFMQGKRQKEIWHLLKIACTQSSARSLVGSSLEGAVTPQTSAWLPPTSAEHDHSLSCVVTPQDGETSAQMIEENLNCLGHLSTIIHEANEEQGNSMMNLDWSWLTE
Briefly: Residual activity of IKKalpha at 0.1 uM by microplate scintillation counting.

For assay [10], the target named is RAC-beta serine/threonine-protein kinase (Homo sapiens) (UniProt P31751). The assay is described as follows: Residual activity of AKT2 at 1 uM by microplate scintillation counting.
Sequence of RAC-beta serine/threonine-protein kinase (Homo sapiens) (P31751 whole entry): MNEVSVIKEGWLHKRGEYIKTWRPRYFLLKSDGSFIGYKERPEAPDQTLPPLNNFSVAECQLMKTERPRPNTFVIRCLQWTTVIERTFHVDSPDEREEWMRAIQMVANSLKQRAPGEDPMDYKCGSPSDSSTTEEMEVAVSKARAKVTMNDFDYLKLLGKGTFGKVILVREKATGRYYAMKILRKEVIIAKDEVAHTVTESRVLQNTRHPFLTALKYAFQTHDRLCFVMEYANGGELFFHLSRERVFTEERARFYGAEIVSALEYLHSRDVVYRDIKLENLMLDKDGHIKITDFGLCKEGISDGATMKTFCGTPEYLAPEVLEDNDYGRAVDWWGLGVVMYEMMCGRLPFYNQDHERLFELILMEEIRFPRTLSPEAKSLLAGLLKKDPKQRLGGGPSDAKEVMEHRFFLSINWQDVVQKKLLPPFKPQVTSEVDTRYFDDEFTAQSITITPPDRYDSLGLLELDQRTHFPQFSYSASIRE
For assay [11], the target named is MAP/microtubule affinity-regulating kinase 3 (Homo sapiens) (UniProt P27448). Briefly: Residual activity of MARK3 at 0.1 uM by microplate scintillation counting.
Sequence of MAP/microtubule affinity-regulating kinase 3 (Homo sapiens) (P27448 whole entry, looked up): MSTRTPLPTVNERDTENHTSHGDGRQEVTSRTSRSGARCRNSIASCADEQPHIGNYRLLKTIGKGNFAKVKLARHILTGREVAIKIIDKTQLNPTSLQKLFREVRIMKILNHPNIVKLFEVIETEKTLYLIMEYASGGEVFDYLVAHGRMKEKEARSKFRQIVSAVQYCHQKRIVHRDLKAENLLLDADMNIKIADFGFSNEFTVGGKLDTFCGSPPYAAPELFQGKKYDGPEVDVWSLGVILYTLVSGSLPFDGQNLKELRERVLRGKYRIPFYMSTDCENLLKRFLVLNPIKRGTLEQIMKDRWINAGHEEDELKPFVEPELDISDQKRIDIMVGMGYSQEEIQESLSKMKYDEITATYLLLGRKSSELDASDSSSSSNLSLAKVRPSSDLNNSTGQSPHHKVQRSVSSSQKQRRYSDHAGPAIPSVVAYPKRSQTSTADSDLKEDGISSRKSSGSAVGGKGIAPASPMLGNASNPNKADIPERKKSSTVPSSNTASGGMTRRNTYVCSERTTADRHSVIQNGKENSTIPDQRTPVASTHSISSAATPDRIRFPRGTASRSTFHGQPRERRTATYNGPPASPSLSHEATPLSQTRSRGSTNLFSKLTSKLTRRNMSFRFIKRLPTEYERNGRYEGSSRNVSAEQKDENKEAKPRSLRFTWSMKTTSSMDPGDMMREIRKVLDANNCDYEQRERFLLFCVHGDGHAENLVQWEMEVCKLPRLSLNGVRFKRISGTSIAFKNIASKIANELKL
Assay [12] addresses Macrophage-stimulating protein receptor (Homo sapiens) (UniProt Q04912). The assay is described as follows: Residual activity of RON at 10 uM by microplate scintillation counting.
Assay [13] has as its target Misshapen-like kinase 1 (Homo sapiens) (UniProt Q8N4C8). Briefly: Residual activity of MINK1 at 0.1 uM by microplate scintillation counting.

Sequence of Macrophage-stimulating protein receptor (Homo sapiens) (Q04912 25-304 limits assumed): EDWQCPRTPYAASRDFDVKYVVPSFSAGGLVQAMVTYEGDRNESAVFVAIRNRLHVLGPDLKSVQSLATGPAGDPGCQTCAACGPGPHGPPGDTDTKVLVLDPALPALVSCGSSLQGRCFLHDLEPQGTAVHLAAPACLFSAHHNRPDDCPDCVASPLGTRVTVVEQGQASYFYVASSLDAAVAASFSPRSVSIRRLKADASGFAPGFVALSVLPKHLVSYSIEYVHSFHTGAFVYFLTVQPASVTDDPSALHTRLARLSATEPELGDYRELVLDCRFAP
Sequence of Macrophage-stimulating protein receptor (Homo sapiens) (Q04912 310-1400 limits assumed): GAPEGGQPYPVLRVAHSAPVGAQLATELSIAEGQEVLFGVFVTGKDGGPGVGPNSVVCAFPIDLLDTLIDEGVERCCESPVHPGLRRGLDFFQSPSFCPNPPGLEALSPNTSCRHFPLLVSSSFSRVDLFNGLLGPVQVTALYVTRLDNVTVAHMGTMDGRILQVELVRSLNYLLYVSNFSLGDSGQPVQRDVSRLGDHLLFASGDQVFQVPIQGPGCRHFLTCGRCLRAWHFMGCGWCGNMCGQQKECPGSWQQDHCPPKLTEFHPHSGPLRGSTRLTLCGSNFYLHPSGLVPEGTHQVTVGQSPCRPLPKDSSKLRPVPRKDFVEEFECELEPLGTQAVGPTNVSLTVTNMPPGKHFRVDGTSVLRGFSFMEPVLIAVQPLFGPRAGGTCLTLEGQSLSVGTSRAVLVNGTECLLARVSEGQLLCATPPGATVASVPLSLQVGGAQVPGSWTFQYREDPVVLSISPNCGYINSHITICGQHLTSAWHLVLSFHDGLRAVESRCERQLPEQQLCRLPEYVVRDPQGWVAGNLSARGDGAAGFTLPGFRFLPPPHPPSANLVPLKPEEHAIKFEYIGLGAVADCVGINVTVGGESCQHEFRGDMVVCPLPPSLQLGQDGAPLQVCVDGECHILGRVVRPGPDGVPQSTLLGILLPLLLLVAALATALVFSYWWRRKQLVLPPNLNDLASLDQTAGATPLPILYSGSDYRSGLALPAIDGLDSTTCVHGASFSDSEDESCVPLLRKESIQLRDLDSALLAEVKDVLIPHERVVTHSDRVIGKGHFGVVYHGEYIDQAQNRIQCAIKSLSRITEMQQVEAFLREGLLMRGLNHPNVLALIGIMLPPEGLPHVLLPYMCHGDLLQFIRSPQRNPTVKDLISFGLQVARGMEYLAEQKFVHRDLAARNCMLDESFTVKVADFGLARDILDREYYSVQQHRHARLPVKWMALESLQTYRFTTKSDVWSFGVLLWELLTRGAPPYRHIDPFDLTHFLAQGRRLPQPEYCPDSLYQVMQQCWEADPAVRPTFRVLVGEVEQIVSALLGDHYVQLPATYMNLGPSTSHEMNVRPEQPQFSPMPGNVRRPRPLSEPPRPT
Sequence of Protein-tyrosine kinase 2-beta (Homo sapiens) (Q14289 whole entry, looked up): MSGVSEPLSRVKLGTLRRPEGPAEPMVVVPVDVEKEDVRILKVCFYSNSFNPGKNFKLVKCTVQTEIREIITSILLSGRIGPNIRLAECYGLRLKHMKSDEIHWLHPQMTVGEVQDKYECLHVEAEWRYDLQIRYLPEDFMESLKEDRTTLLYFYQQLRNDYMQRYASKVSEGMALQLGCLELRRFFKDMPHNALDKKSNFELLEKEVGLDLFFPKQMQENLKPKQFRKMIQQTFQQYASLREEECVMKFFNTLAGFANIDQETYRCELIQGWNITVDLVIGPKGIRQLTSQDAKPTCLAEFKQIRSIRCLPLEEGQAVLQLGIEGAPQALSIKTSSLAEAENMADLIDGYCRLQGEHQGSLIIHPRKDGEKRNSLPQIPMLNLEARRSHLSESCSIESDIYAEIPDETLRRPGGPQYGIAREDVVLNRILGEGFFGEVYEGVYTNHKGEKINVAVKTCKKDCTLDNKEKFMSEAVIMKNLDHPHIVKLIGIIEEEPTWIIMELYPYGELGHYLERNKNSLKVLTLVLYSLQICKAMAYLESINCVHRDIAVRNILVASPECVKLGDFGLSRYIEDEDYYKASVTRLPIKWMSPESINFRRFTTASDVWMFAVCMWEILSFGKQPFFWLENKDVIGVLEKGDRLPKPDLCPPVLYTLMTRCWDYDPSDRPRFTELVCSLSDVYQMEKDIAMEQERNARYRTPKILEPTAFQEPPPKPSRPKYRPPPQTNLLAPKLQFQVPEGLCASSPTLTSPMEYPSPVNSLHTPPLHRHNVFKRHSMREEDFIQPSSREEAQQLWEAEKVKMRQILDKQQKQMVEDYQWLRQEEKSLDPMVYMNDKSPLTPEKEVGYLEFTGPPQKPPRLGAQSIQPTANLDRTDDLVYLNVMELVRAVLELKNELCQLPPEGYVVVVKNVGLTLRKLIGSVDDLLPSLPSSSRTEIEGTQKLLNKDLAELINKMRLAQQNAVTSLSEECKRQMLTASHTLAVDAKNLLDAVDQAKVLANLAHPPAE

On to `COc1cc2c(Oc3ccc(-c4nc5ccccc5s4)cc3)ncnc2cc1OCCCN1CCN(C)CC1`, for which the residual activity in assay [1] is 11%; in assay [2], 94%; in assay [3], 93%; in [4] it was 96%; in assay [5], 93%; in assay [6], 101%. Also, the residual activity in [7] was 102%; in assay [8], 99%; in assay [9], 87%; in assay [10] it was 83%; in assay [11], 92%; in assay [12], 76%. In [13], the residual activity was determined as 77%.

Turning to `COc1cc2c(Oc3ccc(-c4nc5ccccc5s4)cc3)ncnc2cc1OCCCN1CCCC1`, the residual activity in assay [1] stood at 17%; in assay [2], 95%; in [3] it was 94%; in assay [4], 91%; in assay [5], 98%; in assay [6], 93%. Further, the residual activity was determined as 103% in assay [7]; 117% in assay [8]; 89% in assay [9]; 91% in assay [10]; 84% in assay [11]; 53% in assay [12]. The residual activity in assay [13] came to 101%.

For the compound `COc1cc2c(Oc3ccc(-c4nc5ccccc5s4)cc3F)ncnc2cc1OCCCN1CCN(C)CC1`, the residual activity came to 9% in assay [1]; 98% in assay [2]; 83% in assay [3]; 85% in [4]; 104% in assay [5]; 93% in [6]. Besides, the residual activity in assay [7] was determined as 98%; in assay [8], 63%; in [9], 81%; in assay [10], 113%; in assay [11], 87%; in [12], 55%. In addition, in assay [13], the residual activity came to 77%.
